In data set [1] the test system is NIH mice. As to the kind of experiment: test of stomach channel, oral administration. Particulars: 212 mg/kg oral, fasted 24 hours, stomach dissected after 48 hours. As for the experimental part: NIH mice are divided into two groups randomly. […] Dissect stomach after 48 hours. Use 10% methylene oxide. Cut the stomach along the curve of stomach, and calculate the percentage of an ulcer canker.

The test system of data set [2] is female Kunming mouse. As to the kind of experiment: analgesia, mice heating plate method. The format is in vivo. Particulars: for pain record on hot plate (55±0.5° C.): 240 mg/kg. As for the experimental part: Pick the female Kunming mouse, each having the weight between 20 to 22 grams. At first, test their sensitive towards pain. Put the mouse on the hot plate with the temperature of 55±0.5° C., and calculate how much pain does the mouse has by determining how many times they lick their back leg. Eliminate the mice seem to like to jump and the mice has no respond for 30 seconds. Pick a total of 60 mice having sensitive to pain and divide them into 5 groups randomly. […] The dosage of biphenyl acetic ammonia butantriol salt is divided into low, medium, and high dosage, correspondingly to 4, 12, 36 mg/kg, and normal dosage ⅓, 1, 3 respectively. And there is a positive contrast group. […] On the other hand, the saline is injected into the vein in the contrast group. Use epilation to remove the hair of the back leg of the mouse. Record the painful of every mouse before giving drug, and record the painful after giving drug 1 hour. After the mouse licks its foot, remove the hot plate immediately. Do the same record again at the second and third hour after giving drug. Do the t inspect, and judge its effects on easing pain.

A short description of data set [3]: stable test of the injection (influence, acceleration, long term). Type of data set: physicochemical. An excerpt:
The purpose is to investigate the regular change of this product which has the influence of temperature, humidity, and light intensity, and offer producing, packaging, and transporting condition for this medicine. At the same time, the effective date is established by passing this testing. According to the Chinese pharmacopia appendix XI X C, second edition, 2005(the rule of medicine stability testing direction) and “The important stability item-list of bulk drug and pharmaceutical preparation” which is in “The researching directive rule of chemical medicine and therapeutic biological products” determines the important item-list, which includes gender character, PH value, relative materials, asepsis, thermal source, assay, and so on. The testing result is below: […] In other words, the quality of the product is very stable. […] In other words, the quality of the product is very stable. […] In other words, the quality of the product is very stable.

The test system of data set [4] is Kunming mouse. Description: swelling of the mouse ear caused by dimethyl benzene. Particulars: 3-48 mg/kg.
Source text: Total numbers of 110 Kunming mice are used, male, 15-17 g, medical inspection for 3 days.
After testing, the mice are divided into eleven groups randomly and each group contains 10 mice. The numbers and dosage of the biphenyl acetic ammonia butantriol slat are 1, 2, 3, 4, 5 and 3, 6, 12, 24, 48, respectively. The numbers and dosage of flurbiprofen axetil are 1, 2, 3, 4, 5, and 3, 6, 12, 24, 48 respectively. Use the dimethybenzene to make the mouse ear swelling, and use the mouse left ear as the contrast group. After 30 minutes, the mixing liquid is injected into the vein according to its weight ratio 0.1 ml liquid/10 gram weight. Use a punch, having the diameter of 8 mm, to punch the same hole in two different ears. Weight it by very high quality scale. Finally, the swelling ratio is: the weight of right ear plus the weight of left ear.
Data set [5] relates to 2% red blood cell's suspending liquid. Description: hemolytic testing outside the body (visual). The format is cell-based, rabbit. Particulars: low concentration 0.63 mg/ml.
Experimental: Take 0.5 ml the biphenyl acetic ammonia butantriol salt solution and dilute it with 0.9 % NaCl solution (0.9 g/100 ml) to 6.25 ml.
Take 2 ml the biphenyl acetic ammonia butantriol salt solution and dilute it with 0.9 % NACL (0.9 g/100 ml) solution to 6.0 ml.
Take few milliliters of rabbit blood into a triangular flask and shake it for 10 minutes. Remove the fiber egg white, and get non-fiber blood. Separate the blood solution into few centrifuge tubes. Add ten times of 0.9% NaCl solution, well mixing, and centrifuge (1500 turns/minutes, 15 minutes) to remove the supernatant. Use 0.9% NaCl solution to wash the precipitation red blood two or three times until the supernatant is not red anymore. Use the red blood to mix the 0.9% NaCl solution to make 2% suspending liquid for test use.
Take the same size of opening of 7 clean test tubes and number them. Add the 0.9% NaCl solution, the injection water, medicine, and the 2% suspending liquid followed by Table 9. After well mixing, put them in the temperature chamber at 37° C. Inspect them every 15 minutes. After 1 hour, inspect them every one hour for 3 hours.
If testing solution presents clearly red, no cellular residual under the tube, and few cellular residual, it can determines that haemolysis happens. If red cells all sink, and supernatant fluid presents no color, it can present that haemolysis doesn't happen. […]
Data set [6] is described as follows: in vivo. The note with it: both, NIH, mouse, in vivo. An excerpt:
(§1) A total amount of 40 NIH mice, 19-21 gram, (half of the mice are male and half of the mice are female), it is divided into two groups: medicine group and the contrast group. […] The contrast is given by the […] liquid. Investigation and record the poison effect on the mice and the amount of mice death.

The subject of data set [7] is NIH mice. As to the kind of experiment: in vivo.
Source text: as §1

Data set [8] can be described thus: solubility testing. The format is physicochemical. The note with it: for Conclusion (solubility): 25±2° C. As for the experimental part: According to Chinese medicine book in 2005 edition, the preparation of biphenyl acetic ammonia butantriol salt is made by different solvent. […] At first, mill the biphenyl acetic ammonia butantriol salt into flour and weight it, and add solvent into the biphenyl acetic ammonia butantriol salt. Second, at 25±2° C., wave the mixer solution every 5 minutes for 30 seconds, and inspect the dissolve situation. Repeat three times and the result is illustrated in Table 1.

Data set [9] concerns NIH mice. Description: twist reaction caused by glacial acetic acid. Particulars: 3-48 mg/kg.
Experimental: After testing, the 110 NIH mice are divided into eleven groups randomly, which means each group has 10 mice, and each of the mice has a weight between 15 and 17 grams. The numbers and dosage of the biphenyl acetic ammonia butantriol slat are 1, 2, 3, 4, 5 and 3, 6, 12, 24, 48 mg/kg respectively. The numbers and dosage of flurbiprofen axetil are 1, 2, 3, 4, 5, and 3, 6, 12, 24, 48 respectively also. The medicine and weight ratio is 0.1 ml medicine/10 g weight. Meanwhile, we give the same quantity of saline solution to the contrast group. After 30 minutes, the mixture solution is injected into the vein according to its weight ratio 0.1 ml liquid/10 gram weight for HAc painful.
[10] abbreviates: both, NIH, mouse, in vivo, 14 days.
Where [11] appears, read: solvent Acetone, 8.9 g in 150 ml.
The mark [12] stands for this setting: solvent Acetonitrile, 9.1 g in 150 ml.
The mark [13] stands for this setting: solvent Alcohol, 14.3 g in 10 ml.
The mark [14] stands for this setting: solvent Formamide, 0.2137 g in 6 ml.
The mark [15] stands for this setting: solvent Methanol, 0.1135 g in 3 ml.

As a reminder, the LD50 is the dose at which mortality reaches 50%.

“Also recorded” adds a separate entry of the source. Where a name gives a salt, the structure may show the parent alone. Bounds are passed on as bounds.

As to `CC(=O)O.c1ccc(-c2ccccc2)cc1` [Biphenyl acetate], in data set [1], the “Number of ulcer animals/Sum of total animals” value is 13/15.
As to `CC(=O)Oc1ccccc1C(=O)O` [Lysine Acetyl-salicylate], the “pain record on hot plate (55±0.5° C.)” value came to 31.08 ± 4.26 in data set [2] (1 hour), 30.35 ± 3.29 in data set [2] (2 hours) and 28.16 ± 2.97 in data set [2] (3 hours).
`O=C(O)Cc1ccc(-c2ccccc2)cc1` [biphenyl acetic ammonia butantriol salt]: the “time which mouse is standing on the hot plate compared to the contrast group” value in data set [2] (first, second and third hour after giving drugs) is listed as “significantly extends”. The “long term test: change of the product” value in data set [3] (25° C., relative humidity 25%, 3 months) is “no significantly change”. The “acceleration test: change of the product” value in data set [3] (40±2° C., relative humidity 75±5%, 3 months) is “no significantly change”. In data set [3] (60° C., relative humidity 92.5±5%, light intensity 4500±500 lx, 10 days), the “influence test: change of the product” value was “no significantly change”. For the same compound, the “effect towards the swelling ear caused by dimethybenzene compared with flurbiprofen axetil” value in data set [4] is listed as “no significantly difference”. In addition, the “blood absorbing reaction within 3 hours” value in data set [5] is “no blood absorbing reaction”. The LD50 at 14 days in data set [6] (LD50) was over 940 mg/kg; in data set [6] (LD50 of the salt stated as biphenyl phenylacetic acid) it was 589 mg/kg. Also, in data set [7] (940 mg/kg total for one day, 14 days after injection), the mouse death entry was “no mouse went death”. Moreover, the maximum enduring quantity result in [7] (setting [10]) is “over 940 mg/kg”. Besides, the tolerance value in data set [7] (setting [10]) was 940 mg/kg. Further, the “poison effect on the mice after injection” value in data set [7] (mouse, in vivo) was “barely to move”. Besides, the The dissolving condition entry is “Completely” in data set [8] (setting [11]); “Completely” in [8] (setting [12]); “Completely” in data set [8] (setting [13]); “Completely” in data set [8] (setting [14]); “Completely” in data set [8] (setting [15]); “Completely” in [8] (solvent Water, 14.1 g in 10 ml). In addition, the “Conclusion (solubility)” value in data set [8] (setting [11]) was “Undissolvable”; in [8] (setting [12]), “Undissolvable”; in [8] (setting [13]), “just a few dissolve; also recorded: Slightly”; in [8] (setting [14]), “Dissolved”; in data set [8] (setting [15]), “Dissolved”; in data set [8] (solvent Water, 14.1 g in 10 ml), “just a few dissolve; also recorded: Slightly”. Besides, the “effect towards the mouse twisted caused by glacial acetic acid compared with flurbiprofen axetil injection” value in data set [9] is recorded as “no significantly difference”.
